Laboratory results published in ChEMBL document CHEMBL3045987, “Antitussive effects of azepino[2,1-b]quinazolones” (Med Chem Res, 2012).
The source made the active and inactive calls. The rule behind the calls is not given here.

Legend:
Assay type in all cases: functional, organism-based
Cavia porcellus [1] = test: Antitussive activity against citric acid-induced cough in Cavia porcellus albino (guinea pig) model assessed as increase in cough latency at 5 to 20 mg/kg, ip administered 30 min before aersol of citric acid for 10 min
Cavia porcellus [2] = test: Antitussive activity against citric acid-induced cough in Cavia porcellus albino (guinea pig) model assessed as decrease in cough frequency per 10 min at 5 to 20 mg/kg, ip administered 30 min before aersol of citric acid for 10 min
Cavia porcellus [3] = test: Antitussive activity against citric acid-induced cough in Cavia porcellus albino (guinea pig) model assessed as increase in cough latency at 10 mg/kg, ip administered 30 min before aersol of citric acid for 10 min; design: dose 10 mg/kg
Cavia porcellus [4] = test: Antitussive activity against citric acid-induced cough in Cavia porcellus albino (guinea pig) model assessed as decrease in cough frequency per 10 min at 10 mg/kg, ip administered 30 min before aersol of citric acid for 10 min; design: dose 10 mg/kg

Structure (SMILES)	Activity (Cavia porcellus [1])	inhibition (Cavia porcellus [2])	Activity (Cavia porcellus [3])	inhibition (Cavia porcellus [4])
O=c1c2cc(Br)cc(Br)c2nc2n1CCCCC2	Active	Active		
O=c1c2cc(O)cc(O)c2nc2n1CCCCC2	Active	Active		
CCN1c2ccccc2C(=O)N2CCCCCC21 (centres undefined)	Active	Active		
CN1c2ccccc2C(=O)N2CCCCCC21 (centres undefined)	Active	Active		
O=C1c2ccccc2N(C(=O)c2ccccc2)C2CCCCCN12 (centres undefined)	Active	Active		
O=c1c2ccccc2nc2n1CCCCC2	Active	Active		
CC(=O)N1c2ccccc2C(=O)N2CCCCCC21 (centres undefined)	Active	Active		
O=C1c2ccccc2NC2CCCCCN12 (centres undefined)	Active	Active		
O=c1c2cc([N+](=O)[O-])ccc2nc2n1CCCCC2	Active	Active		
Nc1ccc2nc3n(c(=O)c2c1)CCCCC3	Active	Active		
COc1ccc(CNc2ccc3nc4n(c(=O)c3c2)CCCCC4)cc1OC	Active	Active		
COc1cc(CNc2ccc3nc4n(c(=O)c3c2)CCCCC4)cc(OC)c1OC	Active	Active		
COc1ccc2c3c1O[C@H]1[C@@H](O)C=C[C@H]4[C@@H](C2)N(C)CC[C@@]341			Active	Active
N#Cc1ccc(CNc2ccc3nc4n(c(=O)c3c2)CCCCC4)cc1	Active	Active		
O=c1c2cc(NCc3ccc([N+](=O)[O-])cc3)ccc2nc2n1CCCCC2	Active	Active		
O=C1c2ccccc2N(Cc2ccccc2)C2CCCCCN12 (centres undefined)	Active	Active		
COc1cc(OC)c2nc3n(c(=O)c2c1)CCCCC3	Active	Active		
